# According to the supplement of paper PMC13380429:
# Assays:
# Conditions in all cases: 72 h
# [1] = tested on: HepG2; assay: drug sensitivity score (DSS) for viability; higher = more toxic; extreme values may be limits of the assay
# [2] = tested on: Caco-2; assay: as above
# [3] = tested on: U2OS; assay: as above
# [4] = tested on: Calu-3; assay: as above
# [5] = tested on: Vero E6; assay: as above
# [6] = tested on: HepG2; assay: cell viability relative to DMSO; higher = less toxic
# [7] = tested on: Caco-2; assay: as above
# [8] = tested on: U2OS; assay: as above
# [9] = tested on: Calu-3; assay: as above
# [10] = tested on: Vero E6; assay: as above
# [11] = tested on: HepG2; assay: relative viability EC50 (midpoint between 100% and the lowest measured viability); higher = less toxic
# [12] = tested on: Caco-2; assay: as above
# [13] = tested on: U2OS; assay: as above
# [14] = tested on: Calu-3; assay: as above
# [15] = tested on: Vero E6; assay: as above
Structure (SMILES),drug sensitivity score [1],drug sensitivity score [2],drug sensitivity score [3],drug sensitivity score [4],drug sensitivity score [5],cell viability ([6]; 1 nM),cell viability ([6]; 10 nM),cell viability ([6]; 100 nM),cell viability ([6]; 1000 nM),cell viability ([6]; 10000 nM),cell viability ([7]; 1 nM),cell viability ([7]; 10 nM),cell viability ([7]; 100 nM),cell viability ([7]; 1000 nM),cell viability ([7]; 10000 nM),cell viability ([8]; 1 nM),cell viability ([8]; 10 nM),cell viability ([8]; 100 nM),cell viability ([8]; 1000 nM),cell viability ([8]; 10000 nM),cell viability ([9]; 1 nM),cell viability ([9]; 10 nM),cell viability ([9]; 100 nM),cell viability ([9]; 1000 nM),cell viability ([9]; 10000 nM),cell viability ([10]; 1 nM),cell viability ([10]; 10 nM),cell viability ([10]; 100 nM),cell viability ([10]; 1000 nM),cell viability ([10]; 10000 nM),relative viability EC50 [11],relative viability EC50 [12],relative viability EC50 [13],relative viability EC50 [14],relative viability EC50 [15]
C/C(=C\c1ccc(C(=O)O)cc1)c1ccc2c(c1)C(C)(C)CCC2(C)C [TTNPB],0,0,0,3.9,0,94.2%,106%,108%,100%,108%,98.1%,95.1%,95%,95.3%,91.9%,99.3%,99.2%,94.3%,93.2%,92.5%,95%,95.6%,84.3%,81.7%,77.2%,94.7%,102%,98.3%,97.9%,102%,> 10 µM,> 10 µM,> 10 µM,> 10 µM,> 10 µM
O=C(COc1cccc2c(=O)[nH]ccc12)c1ccccc1 [UPF-1069],0.1,0.8,0,0,0,97%,95.6%,98.5%,89%,88%,95.6%,92.5%,94.8%,87%,84.5%,102%,101%,95.1%,103%,93.9%,98.2%,101%,92.9%,96.8%,90.2%,94.2%,108%,107%,93.8%,94.6%,> 10 µM,> 10 µM,> 10 µM,> 10 µM,> 10 µM
O=C(Nc1cc(-c2ccccc2)nn1-c1ccccc1)c1ccc([N+](=O)[O-])cc1 [VU29],0,0,0,0,0.2,105%,112%,108%,100%,90.2%,106%,96.2%,102%,95%,96.6%,110%,101%,107%,99%,99%,102%,102%,107%,98.5%,111%,100%,96.4%,101%,94.2%,88.6%,> 10 µM,> 10 µM,> 10 µM,> 10 µM,> 10 µM
Cc1cccc(COc2cccc(/C=C3\C(=O)NN(c4ccccc4)C3=O)c2)c1 [Y16],0,0,0,0,0.2,92.8%,93.5%,98.3%,103%,87.6%,100%,97.9%,101%,93.6%,100%,99.5%,98.4%,97.9%,93.6%,97.8%,104%,104%,97.3%,102%,102%,98.5%,96.7%,98.8%,96.8%,87.8%,> 10 µM,> 10 µM,> 10 µM,> 10 µM,> 10 µM
O=C(O)Cc1ccc(OCCNC[C@H](O)c2ccccc2)cc1 [ZD-2079],0,0,0,0,0,109%,110%,107%,101%,94.3%,92.1%,102%,104%,99.3%,95%,102%,94.8%,107%,98.5%,104%,98.5%,92.7%,105%,98%,96.2%,104%,100%,98.8%,102%,100%,> 10 µM,> 10 µM,> 10 µM,> 10 µM,> 10 µM
CC(=O)Nc1nnc(S(N)(=O)=O)s1 [acetazolamide],0,0,0,0,0,105%,103%,105%,105%,98%,97.5%,97.7%,95.2%,96.6%,92.4%,103%,101%,95.7%,104%,97.2%,103%,104%,97.5%,99.2%,94.3%,102%,101%,97.9%,89.9%,99.9%,> 10 µM,> 10 µM,> 10 µM,> 10 µM,> 10 µM
Nc1[nH]cnc2ncnc1-2 [adenine],0,0,0,0,0,77.5%,98.7%,92.8%,92.5%,93.2%,91.8%,95.9%,104%,88.5%,114%,93.8%,103%,98.4%,99.5%,110%,91.3%,93.3%,112%,108%,90.7%,104%,103%,101%,91.7%,98.2%,> 10 µM,> 10 µM,> 10 µM,> 10 µM,> 10 µM
COc1ccc2cccc(CCNC(C)=O)c2c1 [agomelatine],0,0,0,0,0,97.7%,104%,97.8%,101%,103%,102%,104%,104%,96.8%,98%,105%,99%,105%,98.8%,99.8%,105%,106%,103%,88.4%,106%,98%,103%,92.5%,106%,96.5%,> 10 µM,> 10 µM,> 10 µM,> 10 µM,> 10 µM
CCCCC[C@H](O)/C=C/[C@H]1[C@H](O)CC(=O)[C@@H]1CCCCCCC(=O)O [alprostadil],0,0,0,0,0,91.4%,101%,98.6%,99.4%,90.5%,96.8%,99%,96.7%,98.6%,97.8%,104%,102%,100%,96.7%,98.7%,99%,105%,88.2%,98.7%,98.1%,101%,101%,98.7%,101%,96.1%,> 10 µM,> 10 µM,> 10 µM,> 10 µM,> 10 µM
CCNC(=O)N1CCN(CCCC(c2ccc(F)cc2)c2ccc(F)cc2)CC1 [amperozide],0,1,0,0,0,98.5%,102%,91.9%,103%,93.7%,96.5%,96.6%,85.6%,94.1%,81.4%,97.5%,103%,94.4%,100%,95.3%,97.6%,103%,95.7%,106%,94.4%,98.7%,98.6%,100%,99.2%,94.1%,> 10 µM,> 10 µM,> 10 µM,> 10 µM,> 10 µM
C[C@]12CCC(=O)C[C@@H]1CC[C@@H]1[C@@H]2CC[C@]2(C)C=CC[C@@H]12 [androstenone],0,0,0,0.1,0,100%,99.4%,92.4%,89.8%,100%,86.6%,104%,93.9%,97.2%,102%,94.5%,99.3%,92.6%,99%,101%,90.7%,91.1%,99.8%,105%,80.2%,96.8%,97.1%,97.4%,93.4%,102%,> 10 µM,> 10 µM,> 10 µM,> 10 µM,> 10 µM
CCCn1c(=O)c2[nH]cnc2n(-c2ccc(Cl)cc2)c1=O [arofylline],0,0,0,0,0,104%,102%,99.1%,100%,101%,87.3%,97.6%,94.4%,87.9%,95.5%,103%,99.1%,102%,96.8%,98.9%,97.7%,95.4%,103%,96.8%,92.2%,108%,108%,101%,98.3%,96%,> 10 µM,> 10 µM,> 10 µM,> 10 µM,> 10 µM
CN1CCN(CCCCN2C(=O)CN(/N=C/c3ccc(-c4ccc(Cl)cc4)o3)C2=O)CC1 [azimilide],0.1,0,0,0,0,99.8%,106%,101%,103%,85.3%,97.4%,102%,94.4%,98.7%,94.5%,103%,97.1%,99.8%,98.2%,98.5%,86.7%,96.6%,91%,106%,92.1%,101%,98.7%,100%,96.9%,98.1%,> 10 µM,> 10 µM,> 10 µM,> 10 µM,> 10 µM
Cn1c(COc2ccc(CC3SC(=O)NC3=O)cc2)nc2ccccc2c1=O (stereo not given) [balaglitazone],0,0.1,0,0.2,0,88.5%,104%,85.7%,100%,99.2%,91.7%,106%,90.7%,96.4%,85.3%,96.4%,95%,97.3%,91.8%,92%,95%,95%,103%,103%,84.3%,98.2%,94.8%,88.6%,93.4%,101%,> 10 µM,> 10 µM,> 10 µM,> 10 µM,> 10 µM
